# Laboratory results published in patent US9615576B2, “Pesticidal compositions and processes related thereto” (Dow AgroSciences LLC, priority 2011, dated 2017).
# Key:
# [1] = test system: Corn Earworm (CEW) (Helicoverpa zea); assay: Bioassays on Corn Earworm (CEW), 128-well diet tray assay; format: in vivo; conditions: 168 h, 50 μg/cm^2 test compound on artificial diet, second instar larvae, 25° C., five to seven days, average of eight wells, read-out: CEW Rating (% mortality)
# Summary of the method: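 Second-instar larvae (one to five per well) placed on artificial diet treated with 50 μg/cm^2 compound in 90:10 acetone-water, dried; eight wells per compound. Held at 25° C, 14:10 light-dark, five to seven days; percent mortality averaged over wells.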
# [2] = test system: Beet Armyworm (BAW) (Spodoptera exigua); assay: Bioassays on Beet Armyworm (BAW), 128-well diet tray assay; format: in vivo; conditions: 168 h, 50 μg/cm^2 test compound on artificial diet, second instar larvae, 25° C., five to seven days, average of eight wells, read-out: BAW Rating (% mortality)
# Summary of the method: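 Second-instar larvae (1–5 per well) on artificial diet surface-treated with 50 μg/cm^2 compound applied in 90:10 acetone-water and dried; eight wells per compound. Held 5–7 days at 25° C., 14:10 light-dark. Percent mortality scored per well and averaged over eight wells.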
melting point [°C],Compound,mortality at 50 µg/cm2 [1] [%],mortality at 50 µg/cm2 [2] [%]
110 to 112,NC(=O)c1ccc(/C=C/C(c2cc(Cl)cc(Cl)c2)C(F)(F)F)cc1 (stereo not drawn) [AC2],,
,CCNC(=S)NC1CCc2cc(/C=C/C(c3cc(Cl)c(Cl)c(Cl)c3)C(F)(F)F)ccc21 (stereo not drawn) [BC2],50 to 100,50 to 100
,Cc1cc(/C=C/C(c2cc(Cl)cc(Cl)c2)C(F)(F)F)ccc1C(=O)NCc1ccc(Cl)nc1 (stereo not drawn) [AC7],50 to 100,50 to 100
,O=C(CNC(=O)c1ccc(/C=C/C(c2cc(Cl)c(F)c(Cl)c2)C(F)(F)F)cc1F)NCC(F)(F)F (stereo not drawn) [AC68],50 to 100,50 to 100
,OCc1cc(/C=C/C(c2cc(Cl)cc(Cl)c2)C(F)(F)F)ccc1-n1cncn1 (stereo not drawn) [DC53],50 to 100,0
,O=C(NCC(F)(F)F)c1ccc(/C=C/C(c2cc(Cl)cc(Cl)c2)C(F)(F)F)cc1 (stereo not drawn) [AC4],50 to 100,0
,COc1ccc(C(/C=C/c2ccc(-n3cncn3)cc2)C(F)(F)F)cc1 (stereo not drawn) [DC6],0,0
,O=[N+]([O-])c1ncn(-c2ccc(/C=C/C(c3cc(Cl)cc(Cl)c3)C(F)(F)F)cc2)n1 (stereo not drawn) [DC22],0,0
,O=C(CC(F)(F)F)NOc1ccc(/C=C/C(c2cc(Cl)c(Cl)c(Cl)c2)C(F)(F)F)cc1 (stereo not drawn) [CC53],0,0
,O=C(NCc1ccc(Cl)nc1)c1ccc(/C=C/C(c2cc(Cl)c(F)c(Cl)c2)C(F)(F)F)cc1F (stereo not drawn) [AC65],50 to 100,50 to 100
,O=C(NCc1ccc(/C=C/C(c2cc(Cl)cc(Cl)c2)C(F)(F)F)cc1C(F)(F)F)C1CC1 (stereo not drawn) [CC21],50 to 100,50 to 100
